Active and inactive are the calls of the source. The rule behind the calls is not given here. A value given as a limit tells only on which side of the number the result lay.

By IC50 is commonly meant the concentration that gives 50% inhibition.

Chain of Coagulation factor XI (Homo sapiens) (P03951 19-387 limits assumed): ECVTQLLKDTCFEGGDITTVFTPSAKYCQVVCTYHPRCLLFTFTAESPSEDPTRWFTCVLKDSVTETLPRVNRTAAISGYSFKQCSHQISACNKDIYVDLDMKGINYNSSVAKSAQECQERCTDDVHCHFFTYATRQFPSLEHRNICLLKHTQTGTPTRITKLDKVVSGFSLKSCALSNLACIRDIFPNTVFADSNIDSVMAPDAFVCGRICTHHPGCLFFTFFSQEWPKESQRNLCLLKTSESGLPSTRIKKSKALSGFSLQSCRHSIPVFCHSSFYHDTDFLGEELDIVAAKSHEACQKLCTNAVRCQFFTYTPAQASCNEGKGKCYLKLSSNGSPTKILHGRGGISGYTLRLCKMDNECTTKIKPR
Chain of Coagulation factor XI (Homo sapiens) (P03951 388-625 limits assumed): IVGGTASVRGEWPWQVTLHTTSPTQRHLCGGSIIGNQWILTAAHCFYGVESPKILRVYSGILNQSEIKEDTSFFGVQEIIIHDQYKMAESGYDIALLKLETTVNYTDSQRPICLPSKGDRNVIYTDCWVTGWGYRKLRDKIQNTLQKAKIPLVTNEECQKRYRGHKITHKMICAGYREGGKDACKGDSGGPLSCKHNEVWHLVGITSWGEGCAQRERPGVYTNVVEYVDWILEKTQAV

The test concerns the target Coagulation factor XI (Homo sapiens) (UniProt P03951). Description: FXIa inhibitor IC50 values, dose response, biochemical, hits from single-well screen (AID 721). To be noted: purified factor XIa enzymatic assay, fluorescence.
For `COC(=O)C(Cc1c[nH]c2ccccc12)NC(C)=O` (stereo not given), the IC50 is 6.69 µM.

`COCCN=C1Sc2nc3c(C)cccc3cc2CN1Cc1ccco1`: the half-maximal inhibitory concentration (IC50) was 0.745 µM.

`O=C(c1cccc2ccccc12)n1nnc2ccccc21`: the IC50 is > 50 µM (inactive).

Take `Cn1c(SCC(=O)NC2CCCCC2)nnc1-c1cccc(N)c1`: the IC50 was > 50 µM (inactive).

With `COc1cc(OC)cc(-c2nnc(SCc3cccc(C(=O)O)c3)o2)c1`, the IC50 was > 50 µM (inactive).

As to `CCC1(c2ccccc2)C(=O)N(C)C(=O)N(C)C1=O`, the IC50 is > 50 µM (inactive).

`CC(C)c1nc2ccc(NC(=O)C3CCCCC3)cc2[nH]1`: the IC50 is > 50 µM (inactive).

`O=C(NCc1ccccc1)C1CCCN(S(=O)(=O)c2cccc3nonc23)C1` (stereo not given): the IC50 is > 50 µM (inactive).

Take `Cc1cc(NC(=O)COC(=O)c2c(C)nn(Cc3ccccc3)c2C)no1`: the IC50 is > 50 µM (inactive).

For `Cc1c(NC(=O)c2cc3ccccc3o2)c(=O)n(-c2ccccc2)n1C`, the IC50 was > 50 µM (inactive).

On to `Cc1c(O)ccc(C(=O)CN2C(=O)c3ccccc3C2=O)c1O`, for which the IC50 is > 50 µM (inactive).

With `O=C(Oc1cccc(-n2cnnn2)c1)c1ccco1`, the IC50 was 4.06 µM.

Consider `C=CCn1c(=O)c2c(nc(Br)n2Cc2ccccc2Cl)n(C)c1=O`, for which the IC50 was 0.638 µM.

As for `Cc1ccc(-c2csc(N3CCC(NS(=O)(=O)c4ccc5c(c4)OCCO5)CC3)n2)cc1`, the IC50 was > 50 µM (inactive).

`CNC(=O)COC(=O)c1[nH]c(C)c(C(C)=O)c1C`: the IC50 was > 50 µM (inactive).

For the compound `COc1cccc(C(=O)N(Cc2ccccc2)Cc2cc3cc4c(cc3[nH]c2=O)OCCO4)c1`, the half-maximal inhibitory concentration (IC50) was 10.4 µM.

In the case of `CCCc1nc2ccccc2c(=O)n1-c1ccc(OC)cc1`, the IC50 is > 50 µM (inactive).

Turning to `CCCC1CCc2c(sc(N)c2C(N)=O)C1` (stereo not given), the IC50 was > 50 µM (inactive).

For `O=C(c1ccc(F)cc1)N1CCN(C(=O)c2cccnc2)CC1`, the IC50 is > 50 µM (inactive).

Take `Cn1nnnc1SCC(=O)N(C1CCCCC1)C1CCCCC1`: the IC50 is > 50 µM (inactive).

As for `CCc1ccc(NC(=O)Cn2nc(C(F)(F)F)c3c2CCC3)cc1`, the IC50 is > 50 µM (inactive).

As for `CCn1nc(CC(=O)Nc2nnc(CC(=O)N3CCCC3)s2)c2ccccc2c1=O`, the IC50 is > 50 µM (inactive).

For `CNCCCc1ccccc1`, the IC50 is > 50 µM (inactive).

For `Cc1ccc(C(=O)n2nc(-c3cccnc3)nc2N)cc1`, the IC50 was > 50 µM (inactive).

For `CCOC(=O)c1c(C)nc2c(c1C)c(=O)oc1ccccc12`, the IC50 is > 50 µM (inactive).

For the compound `O=C(Nc1ccccc1C(=O)N1CCOCC1)c1ccc(F)cc1`, the half-maximal inhibitory concentration (IC50) was 21.4 µM.

For `OCCCn1c(-c2ccccc2)nc(=S)c2c1CCCC2`, the IC50 is > 50 µM (inactive).

`Cc1ccc(NS(=O)(=O)c2ccc(OCC(=O)N3CCOCC3)cc2)cc1`: the IC50 was > 50 µM (inactive).

For `O=C(NC(C(=O)c1ccccc1)n1c(=O)cc[nH]c1=S)c1ccccc1` (stereo not given), the IC50 was > 50 µM (inactive).

In the case of `CCc1c(O)nc(SCC(=O)NC(C)(C)C)n(-c2ccccc2)c1=O`, the IC50 is > 50 µM (inactive).

On to `O=c1nc(-c2ccccc2)c2cc(Cl)ccc2[nH]1`, for which the IC50 was > 50 µM (inactive).

Take `COc1ccc(S(=O)(=O)N2CCC(C(=O)N3CCc4ccccc4C3)CC2)cc1Cl`: the IC50 was 6.26 µM.

Consider `CCOc1cc(S(=O)(=O)N(Cc2ccccc2)Cc2ccccc2)c(OCC)cc1-n1cnnn1`, for which the IC50 was > 50 µM (inactive).

Regarding `CCOC(=O)c1c(C)n(Cc2ccccc2)c2ccc(OCC(O)Cn3nc(C)cc3C)cc12` (stereo not given), the IC50 was > 50 µM (inactive).

For the compound `Cc1ccc(NC(=O)CCn2cccc2)cc1`, the IC50 was > 50 µM (inactive).

Take `COC(=O)c1[nH]c2ccc(Br)cc2c1NC(=O)CN1CCCc2ccccc21`: the IC50 was > 50 µM (inactive).

For the compound `CCOc1ccc(S(=O)(=O)NCc2ccc(OC)cc2)c2cccnc12`, the IC50 is > 50 µM (inactive).

Take `N#Cc1cc2c(nc1SCC(=O)Nc1sc3c(c1C#N)CCC3)CCC2`: the IC50 is > 50 µM (inactive).

As for `CCOC(=O)N=S(=O)(Oc1ccc([N+](=O)[O-])cc1)c1ccccc1` (stereo not given), the IC50 was > 50 µM (inactive).

With `O=C(Oc1ccc2c(=O)c(Cl)coc2c1)c1cccnc1`, the IC50 is > 50 µM (inactive).

As to `CCOC(=O)c1cc2c(ccn2C)n1CC(=O)N1CCC(C)CC1`, the IC50 was 0.744 µM.

Turning to `CCn1c(SCC(=O)c2[nH]c(C)c(C(C)=O)c2C)nnc1-c1ccccc1`, the IC50 is 7.44 µM.

As for `CCC1CC2CC(NC(C)=O)C1C2` (stereo not given), the half-inhibitory concentration (IC50) is 0.588 µM.

For the compound `COc1ccc(OCC(=O)Nc2cc(-c3nn(C)c(=O)c4ccccc34)ccc2OC)cc1`, the IC50 is > 50 µM (inactive).

Take `O=C(CCCN1C(=O)c2ccccc2C1=O)NCC1CCCO1` (stereo not given): the half-maximal inhibitory concentration (IC50) is 14.6 µM.

`N#Cc1ccc(NC(=O)COC(=O)CNC(=O)C2CCCCC2)cc1`: the IC50 was > 50 µM (inactive).

Take `O=C(c1cn(-c2ccccc2)nc1-c1ccncc1)n1nnc2ccccc21`: the half-maximal inhibitory concentration (IC50) was 0.707 µM.

Take `Cc1cnc(C(=O)OCC(=O)NCc2ccccc2)cn1`: the IC50 is > 50 µM (inactive).

In the case of `COc1cc(OC)c2c(N)c(C#N)c(C(F)(F)C(F)(F)F)nc2c1`, the IC50 is > 50 µM (inactive).

On to `O=c1cccc2n1CC1CC2CN(S(=O)(=O)c2ccccc2)C1` (stereo not given), for which the IC50 is > 50 µM (inactive).

Turning to `CN(CCOc1ccccc1)c1ccc(S(=O)(=O)N2CCCCC2)cn1`, the IC50 was > 50 µM (inactive).

On to `Cc1cc(=O)[nH]c(-n2[nH]c(C)cc2=O)n1`, for which the IC50 was > 50 µM (inactive).

As for `CCC(CO)NCc1ccc(OC2CCCC2)cc1` (stereo not given), the IC50 is > 50 µM (inactive).

For the compound `CCCC(=O)n1nc(-c2ccccc2)nc1SC`, the IC50 was > 50 µM (inactive).

For the compound `COc1ccccc1-n1cnnc1SCC(=O)Nc1nc(C)c(Cl)cc1Cl`, the IC50 is 10.2 µM.

`O=C(CCSc1nnc2ccc3ccccc3n12)Nc1ccc(F)cc1`: the IC50 is > 50 µM (inactive).

Turning to `Cc1cccc(NC(=O)c2snc3c(=O)[nH]cnc23)c1`, the IC50 is > 50 µM (inactive).

In the case of `O=S(=O)(Cc1ccccc1)N1CCC(c2nc(-c3cccs3)no2)CC1`, the IC50 is > 50 µM (inactive).

As for `Cc1cc(C)n2nc(C(=O)Nc3ccc4c(c3)OCO4)cc2n1`, the IC50 is > 50 µM (inactive).

Take `Cc1ccccc1C(=O)N=c1sccn1C`: the IC50 is > 50 µM (inactive).

For the compound `COc1ccc(Cn2nnnc2C(c2ccccc2Cl)N2CCC(C(N)=O)CC2)cc1` (stereo not given), the IC50 is > 50 µM (inactive).

Take `Cc1ccc(N(C(=O)c2ccccn2)C2(C(=O)NC3CCCC3)CCCCC2)cc1`: the IC50 was > 50 µM (inactive).

With `COc1ccc(CC(=O)NCc2ccc3c(c2)OCO3)cc1`, the IC50 was > 50 µM (inactive).

With `COC(=O)CSc1nnc(C)n1-c1cccc(OC)c1`, the half-maximal inhibitory concentration (IC50) is 2.36 µM.

Turning to `CCOc1cccc2cc(C(N)=O)c(=NCc3ccccc3)oc12`, the IC50 was > 50 µM (inactive).

Consider `CCc1ccc(CC2S/C(=C(\C#N)C(C)=O)NC2=O)cc1` (stereo not given), for which the IC50 is > 50 µM (inactive).

On to `O=S(=O)(Nc1cccc2nsnc12)c1ccccc1`, for which the 50% inhibitory concentration (IC50) is 9.3 µM.

On to `O=c1c(-c2cc3ccccc3o2)[n+]([O-])c2ccccc2n1OCc1ccccn1`, for which the IC50 is > 50 µM (inactive).

Turning to `CCCN(CCC)C(C(=O)Nc1cccc(OC)c1)c1ccccc1` (stereo not given), the IC50 is > 50 µM (inactive).

On to `COc1ccc2c(=O)cc(-c3ccccc3)n(C)c2c1`, for which the IC50 is > 50 µM (inactive).

As to `CCN(CC)CCNC(=O)C(C)c1nn(C)c(=O)c2ccccc12` (stereo not given), the IC50 is > 50 µM (inactive).

On to `COC(=O)c1sc(NC(=O)CC(C)C)c(C(=O)OC)c1C`, for which the IC50 was > 50 µM (inactive).

As for `COc1ccc(OCCSc2ncn[nH]2)cc1`, the IC50 is > 50 µM (inactive).

On to `Cc1ccc(C(=O)n2nnc3ccccc32)cc1`, for which the half-maximal inhibitory concentration (IC50) was 2.39 µM.

For the compound `COc1cc(/C=c2\sc3n(c2=O)CCCN=3)ccc1O`, the IC50 was > 50 µM (inactive).

Values taken from PubChem BioAssay AID721 (PCMD, 2007).
